Source: ChEMBL document CHEMBL1201862, “PubChem BioAssay data set” (2004)
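Five concentrations, 48 hours, 96-well plates. GI50 marks 50% less growth.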 Activity calls are given as the source filed them. Rule as the data show it: active = GI50 up to about 1.1 µM and inactive = higher.

Tests used:
Assay in all cases: DTP human tumour cell line panel, 48 h
K562 = tested on: K562
RPMI-8226 = tested on: RPMI-8226
CAKI-1 = tested on: CAKI-1
SF-295 = tested on: SF-295
HL-60 = tested on: HL-60
TK-10 = tested on: TK-10
786-0 = tested on: 786-0
SR = tested on: SR
IGROV-1 = tested on: IGROV-1
HOP-92 = tested on: HOP-92
A549 = tested on: A549
NCI/ADR-RES = tested on: NCI/ADR-RES
HT-29 = tested on: HT-29
DU-145 = tested on: DU-145
UO-31 = tested on: UO-31
UACC-257 = tested on: UACC-257
COLO 205 = tested on: COLO 205
HCC 2998 = tested on: HCC 2998
RXF 393 = tested on: RXF 393
A498 = tested on: A498

| SMILES | GI50 (K562) | GI50 (RPMI-8226) | GI50 (CAKI-1) | GI50 (SF-295) | GI50 (HL-60) | GI50 (TK-10) | GI50 (786-0) | GI50 (SR) | GI50 (IGROV-1) | GI50 (HOP-92) | GI50 (A549) | GI50 (NCI/ADR-RES) | GI50 (HT-29) | GI50 (DU-145) | GI50 (UO-31) | GI50 (UACC-257) | GI50 (COLO 205) | GI50 (HCC 2998) | GI50 (RXF 393) | GI50 (A498) |
| --- | --- | --- | --- | --- | --- | --- | --- | --- | --- | --- | --- | --- | --- | --- | --- | --- | --- | --- | --- | --- |
| CCCCCC(=O)OCC(=O)[C@H]1[C@H](C)C[C@H]2[C@@H]3C[C@H](F)C4=C/C(=N/OC(=O)c5cccc6c(=O)c7ccccc7[nH]c56)C=C[C@]4(C)[C@H]3[C@@H](O)C[C@@]21C | 46.5 µM (inactive) | < 0.01 µM (active) | 41.8 µM (inactive) | 47.8 µM (inactive) | > 100 µM (inactive) | 26.2 µM (inactive) | 48.3 µM (inactive) | 21.5 µM (inactive) | 25.2 µM (inactive) | 73.1 µM (inactive) | 20.6 µM (inactive) | 11.2 µM (inactive) | 21.7 µM (inactive) | 39.4 µM (inactive) | 16 µM (inactive) | 20 µM (inactive) | 24.3 µM (inactive) | 24.7 µM (inactive) |  |  |
| CS(=O)(=O)Nc1ccc(Nc2ccnc3ccc4[nH]ccc4c23)cc1 | 6.64 µM (inactive) | 21 µM (inactive) | 27.7 µM (inactive) | 24.5 µM (inactive) | 21.4 µM (inactive) | 30.2 µM (inactive) | 9.64 µM (inactive) |  | 20 µM (inactive) | 8.36 µM (inactive) | 19.5 µM (inactive) | > 100 µM (inactive) | 18.4 µM (inactive) | 9.93 µM (inactive) | 29.7 µM (inactive) | 15.6 µM (inactive) | 9.1 µM (inactive) | 4.98 µM (inactive) | 14 µM (inactive) | 18.5 µM (inactive) |
| Cc1nc2c(=O)n(C)ncc2[nH]1 | > 100 µM (inactive) | > 100 µM (inactive) | > 100 µM (inactive) | > 100 µM (inactive) | 33.4 µM (inactive) | > 100 µM (inactive) | > 100 µM (inactive) | > 100 µM (inactive) | > 100 µM (inactive) |  | > 100 µM (inactive) | > 100 µM (inactive) | > 100 µM (inactive) | > 100 µM (inactive) | > 100 µM (inactive) | > 100 µM (inactive) | > 100 µM (inactive) |  | > 100 µM (inactive) | > 100 µM (inactive) |
| CCOc1ccncc1[N+](=O)[O-] | > 100 µM (inactive) | > 100 µM (inactive) | > 100 µM (inactive) | > 100 µM (inactive) | > 100 µM (inactive) | > 100 µM (inactive) | > 100 µM (inactive) | > 100 µM (inactive) | > 100 µM (inactive) |  | > 100 µM (inactive) | > 100 µM (inactive) | > 100 µM (inactive) | > 100 µM (inactive) | > 100 µM (inactive) | > 100 µM (inactive) | > 10 µM (inactive) |  | > 100 µM (inactive) | > 100 µM (inactive) |
| O=S(=O)(O)c1c(/N=N/c2c(O)ccc3ccccc23)ccc2ccccc12 | > 100 µM (inactive) | > 100 µM (inactive) | > 100 µM (inactive) | > 100 µM (inactive) |  | > 100 µM (inactive) | > 100 µM (inactive) | > 100 µM (inactive) | 79.8 µM (inactive) | > 100 µM (inactive) | > 100 µM (inactive) | > 100 µM (inactive) | > 100 µM (inactive) | > 100 µM (inactive) | 76.7 µM (inactive) | > 100 µM (inactive) | 70.1 µM (inactive) |  | > 100 µM (inactive) | > 100 µM (inactive) |
| Cc1c2c(C#N)nccc2c(C)c2c1c1ccccc1n2Cc1ccccc1 | > 100 µM (inactive) | > 100 µM (inactive) | > 100 µM (inactive) | > 100 µM (inactive) | > 100 µM (inactive) | > 100 µM (inactive) | > 100 µM (inactive) | 36.1 µM (inactive) | > 100 µM (inactive) | 77.8 µM (inactive) | > 100 µM (inactive) | > 100 µM (inactive) | > 100 µM (inactive) | > 100 µM (inactive) | > 100 µM (inactive) | > 100 µM (inactive) | > 100 µM (inactive) | > 100 µM (inactive) | > 100 µM (inactive) |  |
| Cc1c2ccccc2c(C)n2c1nc1cc3ccccc3cc12 | 2.91 µM (inactive) | 2.2 µM (inactive) | 1.24 µM (inactive) | 1.06 µM (active) | 2.5 µM (inactive) | 2.15 µM (inactive) | 0.955 µM (active) | 0.721 µM (active) | 1.04 µM (active) | 0.00215 µM (active) | 1.86 µM (inactive) | 0.897 µM (active) | 0.647 µM (active) | 1.3 µM (inactive) |  | 3.3 µM (inactive) | 1.34 µM (inactive) | 1.78 µM (inactive) |  |  |
| O=[N+]([O-])/C(C(Cl)=C(Cl)Cl)=C(\N1CCCCC1)n1cncn1 | > 46 µM (inactive) | 19.1 µM (inactive) | 10.6 µM (inactive) | 17.1 µM (inactive) |  | 17.2 µM (inactive) | 20.4 µM (inactive) | 3.99 µM (inactive) | 9.08 µM (inactive) |  | 19.7 µM (inactive) | 20.1 µM (inactive) | 17.7 µM (inactive) | 16.6 µM (inactive) | 15.9 µM (inactive) | 17.5 µM (inactive) | 15.7 µM (inactive) | 20 µM (inactive) | 6.64 µM (inactive) | 15.8 µM (inactive) |
| CCCC(=O)n1[nH]c(=O)n(-c2ccc(Cl)cc2)c1=O | > 100 µM (inactive) | > 100 µM (inactive) | > 100 µM (inactive) | > 100 µM (inactive) | > 100 µM (inactive) | > 100 µM (inactive) | > 100 µM (inactive) | > 100 µM (inactive) | > 100 µM (inactive) |  | > 100 µM (inactive) | > 100 µM (inactive) | > 100 µM (inactive) | > 100 µM (inactive) | > 100 µM (inactive) | > 100 µM (inactive) | > 100 µM (inactive) | > 100 µM (inactive) | > 100 µM (inactive) |  |
| CN(C(=O)OC(C)(C)C)[C@H]1CCCC[C@H]1N1CCCC1 | > 100 µM (inactive) | > 100 µM (inactive) | > 100 µM (inactive) | > 100 µM (inactive) | 5.81 µM (inactive) | > 100 µM (inactive) | > 100 µM (inactive) | > 100 µM (inactive) | > 100 µM (inactive) |  | > 100 µM (inactive) | > 100 µM (inactive) | > 100 µM (inactive) | > 100 µM (inactive) | > 100 µM (inactive) | 53.7 µM (inactive) | > 100 µM (inactive) |  |  | > 100 µM (inactive) |
| CC(C)CN1CN(c2ccccc2)C2(CCN(CC(C)(c3ccc(F)cc3)C3OCCO3)CC2)C1=O (stereo not drawn) | 3.08 µM (inactive) | 1.94 µM (inactive) | 12.1 µM (inactive) | 3.87 µM (inactive) | 2.68 µM (inactive) | 10.8 µM (inactive) | 3.12 µM (inactive) | 2.77 µM (inactive) |  |  | 5.09 µM (inactive) | 7.41 µM (inactive) | 1.73 µM (inactive) | 4.1 µM (inactive) | 2.7 µM (inactive) | 3.04 µM (inactive) | 1.65 µM (inactive) | 2.39 µM (inactive) | 6.25 µM (inactive) |  |
| CN(c1ccccc1)S(=O)(=O)c1ccccc1[N+](=O)[O-] | 36.3 µM (inactive) | 37.8 µM (inactive) | > 100 µM (inactive) | > 100 µM (inactive) | > 100 µM (inactive) | > 100 µM (inactive) | > 100 µM (inactive) | 81.3 µM (inactive) | > 100 µM (inactive) |  | > 100 µM (inactive) | > 100 µM (inactive) | 39.8 µM (inactive) | > 100 µM (inactive) | > 100 µM (inactive) | > 100 µM (inactive) | > 100 µM (inactive) | > 100 µM (inactive) | > 100 µM (inactive) |  |
| CCOC(=O)CCc1cn2cc(Br)nc(OC)c2n1 | 4.75 µM (inactive) | 44 µM (inactive) | > 100 µM (inactive) | 57.7 µM (inactive) | > 100 µM (inactive) | > 100 µM (inactive) | > 100 µM (inactive) | 72.6 µM (inactive) | 65.6 µM (inactive) |  | 62.4 µM (inactive) | 24.9 µM (inactive) | 17.9 µM (inactive) | 51.6 µM (inactive) | 23.2 µM (inactive) | > 100 µM (inactive) | 9.12 µM (inactive) | > 100 µM (inactive) | 40.2 µM (inactive) |  |
| OC1NC2CC3NC(O)C(O)NC3CC2NC1O (stereo not drawn) | > 100 µM (inactive) | > 100 µM (inactive) | > 100 µM (inactive) | > 100 µM (inactive) | > 100 µM (inactive) | > 100 µM (inactive) | > 100 µM (inactive) | > 100 µM (inactive) | > 100 µM (inactive) | > 100 µM (inactive) | > 100 µM (inactive) | > 100 µM (inactive) | > 100 µM (inactive) | > 100 µM (inactive) | > 100 µM (inactive) | > 100 µM (inactive) | > 100 µM (inactive) | > 100 µM (inactive) | > 100 µM (inactive) |  |
| O=c1c2cc([N+](=O)[O-])cnc2sn1-c1ccc(Br)cc1 |  | 26.6 µM (inactive) |  | 17.5 µM (inactive) | 34.5 µM (inactive) | > 100 µM (inactive) | 30.5 µM (inactive) | 21.8 µM (inactive) | 81.7 µM (inactive) | 23.8 µM (inactive) | 42.3 µM (inactive) | 33.9 µM (inactive) | 27.2 µM (inactive) | > 100 µM (inactive) | 51.3 µM (inactive) | > 100 µM (inactive) | 47.2 µM (inactive) | 91 µM (inactive) |  |  |
